Values quoted from earlier work, collected in patent US11503825B2, “Pyrethroid formulations” (Vive Crop Protection Inc., priority 2011, dated 2022).
Values after ≈ are worked out from the molar mass of the structure shown. “Also recorded” adds a separate entry of the source. Read-outs that look alike come from different tables or passages of the source.

How the values were obtained:
[1] = cited from earlier work; for Stability data: in words
[2] = cited from earlier work; for Photolytic stability: in words; for Photolysis DT50: aqueous solution
[3] = cited from earlier work
[4] = cited from earlier work; remark: listed apart in the source
[5] = hydrolysis prevents measurement; cited from earlier work

For `CC1(C)C(C=C(Cl)Cl)C1C(=O)OC(C#N)c1cccc(Oc2ccccc2)c1` (racemic) [Alpha-cypermethrin, A racemate comprising (S)-α-cyano-3-phenoxybenzyl (1R,3R)-3-(2,2-dichlorovinyl)-2,2-dimethylcyclopropanecarboxylate and (R)-α-cyano-3-phenoxybenzyl (1S,3S)-3-(2,2-dichlorovinyl)-2,2-dimethylcyclopropanecarboxylate], the “DT50 (hydrolysis)” value ([1]; pH 4, 50° C.) is listed as “stable over 10 d”, the “DT50 (hydrolysis)” value ([1]; pH 7, 20° C.) is listed as 101 days and the “DT50 (hydrolysis)” value ([1]; pH 9, 20° C.) is listed as 7.3 days.
In the case of `Cc1c(COC(=O)[C@@H]2[C@H](/C=C(\Cl)C(F)(F)F)C2(C)C)cccc1-c1ccccc1` (racemic) [Bifenthrin, 2-methylbiphenyl-3-ylmethyl (Z)-(1RS,3RS)-3-(2-chloro-3,3,3-trifluoroprop-1-enyl)-2,2-dimethylcyclopropanecarboxylate], the “Photolytic stability DT50” value ([2]; in natural daylight) is listed as “DT50 255 days in natural daylight^+” and the “Soil DT50 (lab.)” value ([1]; range) is listed as 53 to 192 days.
In the case of `CC1(C)[C@H](C(=O)O[C@@H](C#N)c2cccc(Oc3ccccc3)c2)[C@@H]1/C=C(\Cl)C(F)(F)F` (racemic) [Cyhalothrin, (RS)-α-cyano-3-phenoxybenzyl (Z)-(1RS,3RS)-3-(2-chloro-3,3,3-trifluoroprop-1-enyl)-2,2-dimethylcyclopropanecarboxylate], the “Solubility in acetone, dichloromethane, methanol, diethyl ether, ethyl acetate, hexane, toluene” value [3] is listed as “acetate, hexane, toluene: >500 g/L”, the Solubility in water ([3]; pH 5, 20° C.) is listed as “water: 4.2 ug/L (pH 5, 20° C.)” and the “KOW logP” value ([4]; 20° C.) is listed as “logP = 6.9”. The pKa [5] was over 9, the Photolytic stability [2] was “Stable to light; slow hydrolysis by water in” and the Stability data [1] was “Slowly hydrolyzed by water in sunlight at pH 7-9,; also recorded: more rapidly at pH >9”.
For `CC1(C)C(C=C(Cl)Cl)C1C(=O)OC(C#N)c1cccc(Oc2ccccc2)c1` (racemic) [Cypermethrin, (RS)-α-cyano-3-phenoxybenzyl (1RS,3RS;1RS,3SR)-3-(2,2-dichlorovinyl)-2,2-dimethylcyclopropanecarboxylate], the “DT50 (hydrolysis)” value ([1]; pH 9, 25° C.) is given as 1.8 days.
For `CC(C)[C@@H](C(=O)O[C@@H](C#N)c1cccc(Oc2ccccc2)c1)c1ccc(Cl)cc1` (racemic) [Fenvalerate, (RS)-α-cyano-3-phenoxybenzyl (RS)-2-(4-chlorophenyl)-3-methylbutyrate], the Solubility in methanol ([3]; 20° C.) is listed as “methanol 84 (all in g/l, 20° C.)”, the Solubility in n-hexane ([3]; 20° C.) is listed as 53 g/L (≈ 126 mM) and the Solubility in xylene ([3]; 20° C.) is listed as over 200 g/L. The Solubility in water ([3]; 25° C.) was “water <10 μg/l (25° C.)”, the “KOW logP” value ([4]; 23° C.) was “logP = 5.01” and the Photolytic stability [2] was “Decarboxylation occurs in light^+”. The Stability data [1] was “rapidly hydrolyzed in alkaline media”.
For `CC1(C)C(C=C(Cl)Cl)C1C(=O)OC(C#N)c1cccc(Oc2ccccc2)c1` (racemic) [Zeta-cypermethrin, A mixture of the stereoisomers (S)-α-cyano-3-phenoxybenzyl (1RS,3RS;1RS,3SR)-3-(2,2-dichlorovinyl)-2,2-dimethylcyclopropanecarboxylate where the ratio of the (S);(1RS,3RS) isomeric pair to the (S);(1RS,3SR) isomeric pair lies in the ratio range 45-55 to 55-45], the “Photolysis DT50” value [2] is given as “Photolysis DT50 (aqueous solution) 20-26 days^+”, the “Hydrolysis DT50” value ([1]; pH 7, 25° C.) is given as 25 days and the “Hydrolysis DT50” value ([1]; pH 9, 50° C.) is given as 1.5 h (pH 9, 50° C.).
In the case of `CC1(C)[C@H](C(=O)O[C@H](C#N)c2cccc(Oc3ccccc3)c2)[C@@H]1C=C(Br)Br` [Deltamethrin, (S)-α-cyano-3-phenoxybenzyl (1R,3R)-3-(2,2-dibromovinyl)-2,2-dimethylcyclopropanecarboxylate], the “KOW logP” value ([4]; 25° C.) is listed as “logP = 4.6”, the Photolytic stability [2] is listed as “Ester bond splitting and bromine loss under” and the Stability data [1] is listed as “stable at pH 5 and 7”. The DT50 ([1]; pH 8) was 31 days and the DT50 ([1]; pH 9) was 2.5 days.
In the case of `CC(C)[C@H](C(=O)O[C@H](C#N)c1cccc(Oc2ccccc2)c1)c1ccc(Cl)cc1` [Esfenvalerate, (S)-α-cyano-3-phenoxybenzyl (S)-2-(4-chlorophenyl)-3-methylbutyrate], the Solubility in hexane ([3]; 20° C.) is listed as 77 mg/mL (≈ 183 mM), the Solubility in water ([3]; 20° C.) is listed as “water 0.002 mg/l (20° C.)” and the “Solubility in xylene, acetone, chloroform, ethanol, methanol, DMF, hexylene glycol” value ([3]; 20° C.) is listed as over 450 mg/mL. For the same compound, the “KOW logP” value ([4]; pH 7, 25° C.) was “logP = 6.5”, the Photolytic stability [2] was “Stable^+” and the Stability data [1] was “Stable to hydrolysis at pH 5, 7 and 9 (25° C.)”.
In the case of `CC1(C)[C@H](C(=O)O[C@H](C#N)c2cccc(Oc3ccccc3)c2)[C@@H]1/C=C(\Cl)C(F)(F)F` [Gamma-cyhalothrin, (S)-α-cyano-3-phenoxybenzyl (Z)-(1R,3R)-3-(2-chloro-3,3,3-trifluoroprop-1-enyl)-2,2-dimethylcyclopropanecarboxylate], the Solubility in water ([3]; 20° C.) is listed as “water 2.1 × 10^−3 mg/l (20° C.)”, the “KOW logP” value ([4]; 19° C.) is listed as “logP = 4.96” and the “Photolysis DT50” value [2] is listed as “Photolysis DT50 (aqueous solution) 10.6 days^+”.
In the case of `CC1(C)C(C=C(Cl)Cl)C1C(=O)OCc1cccc(Oc2ccccc2)c1` (stereo not drawn) [Permethrin, 3-phenoxybenzyl (1RS,3RS;1RS,3SR)-3-(2,2-dichlorovinyl)-2,2-dimethylcyclopropanecarboxylate], the Solubility in methanol ([3]; 25° C.) is listed as 258 (all in g/kg, 25° C.), the “Solubility in xylene, hexane” value ([3]; 25° C.) is listed as “xylene, hexane >1000, methanol g/kg” and the Solubility in water ([3]; pH 7, 20° C.) is listed as “water 6 × 10^−3mg/l (pH 7, 20° C.);”. For the same compound, the Solubility in water ([3]; trans- isomers, pH not stated, 25° C.) was “stated, 25° C.); trans- isomers 0.13 mg/l”, the Photolytic stability [2] was “Photolysis in water^++” and the DT50 ([1]; pH 5, 7, 25° C.) was “stable”. The “DT50 (hydrolysis)” value ([1]; pH 9, 25° C.) was 50 days.
In the case of `CC(C)=CC1C(C(=O)OCc2coc(Cc3ccccc3)c2)C1(C)C` (stereo not drawn) [Resmethrin, 5-benzyl-3-furylmethyl (1RS,3RS;1RS,3SR)-2,2-dimethyl-3-(2-methylprop-1-enyl)cyclopropane carboxylate], the Solubility in water ([3]; 25° C.) is given as “water 37.9 μg/l (25° C.)”, the Solubility in acetone ([3]; m/v, 20° C.) is given as “acetone c. 30%, chloroform,” and the “Solubility in chloroform, dichloromethane, ethyl acetate, toluene” value ([3]; m/v, 20° C.) is given as over 50%. For the same compound, the “Solubility in ethanol, n-octanol” value ([3]; m/v, 20° C.) was “ethanol, n-octanol c. 6%, n-hexane”, the “Solubility in isopropyl ether” value ([3]; m/v, 20° C.) was about 25% and the Solubility in methanol ([3]; m/v, 20° C.) was “methanol c. 3% (all m/v, 20° C.)”. For the same compound, the Solubility in n-hexane ([3]; m/v, 20° C.) was about 10%, the Solubility in xylene ([3]; m/v, 20° C.) was over 40% and the “KOW logP” value ([4]; 25° C.) was “logP = 5.43”. For the same compound, the Photolytic stability [2] was “Decomposes rapidly on exposure to air and light^+” and the Stability data [1] was “Unstable in alkaline media”.
In the case of “A mixture of the enantiomers (R)-α-cyano-3-phenoxybenzyl (1S,3R)-3-(2,2-dichlorovinyl)-2,2-dimethylcyclopropanecarboxylate and (S)-α-cyano-3-phenoxybenzyl (1R,3S)-3-(2,2-dichlorovinyl)-2,2-dimethylcyclopropanecarboxylate in the ratio 1:1 [Theta-cypermethrin]”, the “DT50 (extrapolated)” value ([1]; pH 3, 5, 6, 25° C.) is given as 50 days, the “DT50 (extrapolated)” value ([1]; pH 7, 25° C.) is given as 20 days and the “DT50 (extrapolated)” value ([1]; pH 8, 25° C.) is given as 18 days. The “DT50 (extrapolated)” value ([1]; pH 9, 25° C.) was 10 days.
In the case of Beta-cypermethrin, the “KOW logP” value [4] is given as “logP = 4.7”, the Stability data [1] is given as “Hydrolyzed in strongly alkaline media. DT50” and the “DT50 (extrapolated)” value ([1]; pH 3, 5, 6, 25° C.) is given as 50 days. The “DT50 (extrapolated)” value ([1]; pH 7, 25° C.) was 40 days, the “DT50 (extrapolated)” value ([1]; pH 8, 25° C.) was 20 days and the “DT50 (extrapolated)” value ([1]; pH 9, 25° C.) was “(pH 8), 15 d (pH 9) (all at 25° C.)”.
